Experimental data from patent publication US5292498A, “Method of treating lung disease with uridine triphosphates” (The University of North Carolina At Chapel Hill, priority 1991, dated 1994).

System: normal human nasal epithelium
Test: Bioelectric studies (short circuit current, Isc) of normal human nasal epithelium in Ussing chambers
Assay type: cell-based
Method: Freshly excised human nasal epithelium from normal or cystic fibrosis subjects was grown in primary culture in F-12, hormone-supplemented medium in accordance with known procedures. See R. Wu et al., Am. Rev. Respir. Dis. 132, 311-320 (1985). For [Ca^2+ ]i measurements, cultures were grown on non-fluorescent vitrogen substrates on glass coverslips. Cultures for electrophysiologic studies were grown to confluence on permeable collagen matrix supports (CMS), allowing addition of agonists to the basolateral or apical surface of the epithelial sheet.
Confluent monolayers of primary human nasal epithelium were mounted in modified Ussing chambers in accordance with known procedures. See, e.g., R. Boucher et al., J. Physiol. (Lond.) 405, 77-103 (1988); M. Knowles et al., Science 221, 1067-1070 (1983). The studies described below were performed under short circuit current conditions at 37° C., and in some studies, amiloride was added to the apical bath (10^-4 M) to block transepithelial sodium transport. Changes in transepithelial potential difference (Vt), resistance (Rt) and short circuit current (Isc) were measured in response to addition of various nucleotides. Each cultured preparation was exposed to only one concentration of an agonist on either the basolateral or apical surface to avoid the tachyphylaxis observed in preliminary cumulative dose response studies. To construct concentration-effect relationships of responses to nucleotides, it was assumed that the same maximum response to an agonist could be induced from each tissue culture preparation from the same individual.
The effects of extracellular ATP on normal human nasal epithelium were investigated employing bioelectric measurements of ion transport activity when the nucleotide was applied to either the apical or basolateral membrane. […] In general, the change in Isc induced by application of ATP to the apical or the basolateral side returned to baseline or below within 5 minutes after addition of agonist. […] Apical pretreatment with amiloride (10^-4 M) removes active Na^+ absorption as a component of the Isc so that the residual Isc reflects a Cl^- secretory current (R. Boucher et al., J. Clin. Invest. 78, 1245-1252 (1986); N. Willumsen et al., Am. J. Physiol. 256, C1033-C1044 (1989)).
A concentration-effect relationship was found when ATP was applied to normal human nasal epithelium under basal conditions (data not shown). Comparisons were made between responses of tissues from different donors based on the peak change in Isc following ATP application. The curve describes the mean peak change in Isc in response to log increasing concentrations of ATP applied to the apical or basolateral surface.
Concentration-effect relationships were also found for ATP applied to the apical or basolateral membrane of amiloride-pretreated tissues (data not shown). Again, the nucleotide's effect on ion transport was examined as the mean peak change in Isc after ATP application.
The purinergic receptor subtype(s) linked to regulation of ion transport of human nasal epithelium were characterized by obtaining concentration-effect relationships for a variety of purine and pyrimidine agonists in preparations derived from normal and CF patients. We characterized receptor subtype(s) on the […] surface by measuring nucleotide effect on basal Na^+ transport rates. Because therapies designed to induce Cl^- secretion might best be delivered by the aerosol route, receptor subtype characterization on the apical barrier was performed in the presence of amiloride. The effect of extracellular nucleotides on ion transport is reported as the percent change in Isc from control values when applied to the basolateral or apical surface of the culture. Basal pre-agonist currents were similar for tissues in each concentration group.

With `Nc1ncnc2c1ncn2[C@@H]1O[C@H](COP(=O)(O)OP(=O)(O)OP(=O)(O)O)[C@@H](O)[C@H]1O` [ATP, adenosine triphosphate] the “increase in Isc at 10^-3 M” value (10^-3 M, basolateral membrane (not seen with apical application), basal conditions) was “A large increase in Isc”, the “change in Isc on application to either surface” value (ATP, apical or basolateral surface, no amiloride) was “rapidly stimulated an increase in Isc” and the “time for change in Isc to return to baseline or below” value (ATP, apical or basolateral, basal conditions) was at most 5 min. For the same molecule, the Emax (Homo sapiens, read-out: maximum mean % change in Isc) was 51 ± 8%, the “Cl^- secretory response” value (amiloride-pretreated tissues) was “A typical Cl^- secretory response” and the “change in ion transport, amiloride-pretreated versus basal state” value (amiloride-pretreated tissues) was “routinely smaller than that observed in tissues in the basal state”. The “character of log concentration-effect curves” value (amiloride-treated tissues, apical or basolateral) was “sigmoidal in character”, the “duration of prolonged increase in Isc above baseline” value (apical surface following amiloride pretreatment, most tissues) was over 10 min and the “rank order of potency for Cl^- secretion” value (apical surface, amiloride-pretreated, FIG. 2) was “ATP≥UTP>ATPγS>ADP>2MeSATP>ADPβS”. The “effectiveness, apical versus basolateral” value (basal conditions, 10^-7 to 10^-4 M) was “approximately equal”, the “time for ATP induced increase in Isc to return to baseline” value (basolateral addition, amiloride-pretreated) was at most 5 min and the “character of concentration-effect curve including 10^-3 M” value (basolateral surface, 10^-3 M drug considered) was “biphasic in character”. The “character of log concentration-effect curve” value (basolateral surface, 10^-7 to 10^-4 M) was “sigmoidal character”, the “rank order of potency for increase in Isc” value (basolateral surface, FIG. 1) was 2MeSATP>UTP≥ATP>ATPγS>ADP>ADPβS and the “oscillations in Isc” value (following ATP) was “frequently observed”.
